Source: US20230250096A1, “SUBSTITUTED PHENYL-1H-PYRROLO[2,3-c] PYRIDINE DERIVATIVES” (Janssen Pharmaceutica NV, priority 2021, published 2023)
Where two headings read alike, the source gives them in different places.

Tests used:
Type in all cases: cell-based, human
MEIS1 mRNA expression = MEIS1 mRNA expression assay (Quantigene Singleplex) in MOLM14 cells; conditions: 48 hours incubation
Method in brief: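 Read-out: MEIS1 transcript counts, background-subtracted and divided by RPL28, expressed as fold change over DMSO-treated cells, then dose-response modelled for IC50. MOLM14 cells (3,750/well) received graded compound for 48 h before lysis and QuantiGene hybridization at 55 °C.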

MOLM14 cells = assay: Proliferation assay (spheroid confluence, 8 days), MOLM14; conditions: read-out: spheroid assay_MOLM14 IC50
Method in brief: (§1)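 Absolute IC50 derived from spheroid confluence imaged on day 8, scaled between DMSO (0%) and a cytotoxic low control such as 1 μM staurosporin, fitted with variable slope, bounds fixed at 0 and 100%. Seeding 200 cells/well (300 for KO-52), ultra-low attachment plates, 0.3% DMSO, 37° C.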

KO-52 cells = assay: Proliferation assay (spheroid confluence, 8 days), KO-52 control cell line; conditions: read-out: spheroid assay_KO-52 IC50
Method in brief: as §1

| Structure (SMILES) | IC50 (MEIS1 mRNA expression) | IC50 (MOLM14 cells; MOLM14) | IC50 (MOLM14 cells; Homo sapiens, MOLM-14, MOLM14) | IC50 (MEIS1 mRNA expression; Homo sapiens, MOLM-14, 48 h) | IC50 (KO-52 cells) | IC50 (KO-52 cells; Homo sapiens) |
| --- | --- | --- | --- | --- | --- | --- |
| CN=S(=O)(c1cc(F)ccc1-n1cc(CC2CCN(CC3CCOCC3)C2)c2c(C)cncc21)C(C)C (single isomer, unassigned) [Compound 77b] | 0.132 µM | 0.081 µM |  |  | 1.9 µM |  |
| CN=S(=O)(c1cc(F)ccc1-n1cc(CC2CCN(CC3CCOCC3)C2)c2c(C)cncc21)C(C)C (single isomer, unassigned) [Compound 77d] | ~0.26 µM | 0.197 µM |  |  | > 15 µM |  |
| CC(=O)N1CCC(N2CC[C@H](Cc3cn(-c4ccc(F)cc4C(=O)N(C)C(C)C)c4cncc(C)c34)C2)CC1 (single isomer, unassigned) [Compound 81] | 0.077 µM |  | 0.058 µM |  |  | 4 µM |
| Cc1cncc2c1c(CC1CCN(CC3CCN(C(=O)[C@@H](C)O)CC3)C1)cn2-c1ccc(F)cc1C(=O)N(C)C(C)C (single isomer, unassigned) [Compound 85] |  |  | 0.012 µM | 0.022 µM |  | 2.2 µM |
| Cc1cncc2c1c(CC1CCN(CC3CCN(C(=O)[C@H](C)O)CC3)C1)cn2-c1ccc(F)cc1C(=O)N(C)C(C)C (single isomer, unassigned) [Compound 86] |  |  | 0.01 µM | 0.021 µM |  | 1.3 µM |
| CC(=O)N1CCC(C(C)N2CCC(Cc3cn(-c4ccc(F)cc4C(=O)N(C)C(C)C)c4cncc(C)c34)C2)CC1 (single isomer, unassigned) [Compound 116a] |  |  | 0.008 µM | 0.005 µM |  | 3.8 µM |
| Cc1cncc2c1c(CC1CCN(CC3CCN(C(=O)C(C)(C)O)CC3)C1)cn2-c1ccc(F)cc1C(=O)N(C)C(C)C (single isomer, unassigned) [Compound 125] |  |  | 0.011 µM | 0.016 µM |  | 7 µM |
| CN=[S@](=O)(c1cc(F)ccc1-n1cc(C[C@@H]2CCN(CC3CCN(C(C)=O)CC3)C2)c2c(C)cncc21)C(C)C (single isomer, unassigned) [Compound 128a] |  |  | 0.676 µM | 0.258 µM |  | 7.7 µM |
| COCC(=O)N1CCC(CN2CC[C@@H](Cc3cn(-c4ccc(F)cc4C(=O)N(C)C(C)C)c4cncc(C)c34)C2)CC1 (single isomer, unassigned) [Compound 136] |  |  | 0.028 µM | 0.071 µM |  | 1.4 µM |
| CC(=O)N1CCC(N2CC[C@H](Cc3cn(-c4ccc(F)cc4C(=O)N(C)C(C)C)c4cncc(C)c34)C2)C(C)C1 (single isomer, unassigned) [Compound 137a] | 0.014 µM |  | 0.015 µM |  |  | 1.1 µM |
| CNC(=O)[C@H]1CC[C@H](CN2CC([C@H](C)c3cn(-c4ccc(F)cc4C(=O)N(C)C(C)C)c4cncc(C)c34)C2)CC1 (single isomer, unassigned) [Compound 164b] |  |  | 0.01 µM | 0.017 µM |  | 10.4 µM |
| COC[C@H](C1CCCCO1)N1CC[C@@H](Cc2cn(-c3ccc(F)cc3C(=O)N(C)C(C)C)c3cncc(C)c23)C1 (single isomer, unassigned) [Compound 165b] |  |  | 0.004 µM | 0.038 µM |  | 1.9 µM |
| Cc1cncc2c1c(C[C@@H]1CCN([C@H](C)C3CCOCC3)C1)cn2-c1ccc(F)cc1[S@](=N)(=O)C(C)C (single isomer, unassigned) [Compound 180a] |  |  | 0.039 µM | 0.117 µM |  | 7.2 µM |
| COCCN(C)CCCC(C(C)C)N1CC[C@@H](Cc2cn(-c3ccc(F)cc3C(=O)N(C)C(C)C)c3cncc(Cl)c23)C1 (stereo partly drawn) [Compound 3] |  |  | 0.004 µM | 0.01 µM |  | 1.1 µM |
| COCCN(C)CCCC(C(C)C)N1CC[C@H](Cc2cn(-c3ccc(F)cc3C(=O)N(C)C(C)C)c3cncc(Cl)c23)C1 (stereo partly drawn) [Compound 4] |  |  | 0.005 µM | 0.011 µM |  | 3 µM |
| COCCN(C)CCCC(C(C)C)N1CCC(Cc2cn(-c3ccc(F)cc3C(=O)N(C)C(C)C)c3cncc(F)c23)C1 (stereo not drawn) [Compound 6] |  |  | 0.034 µM | 0.049 µM |  | 1.5 µM |
| CNC(=O)[C@H]1CC[C@H](CN2CC(Cc3cn(-c4ccc(F)cc4C(=O)N(C)C(C)C)c4cncc(C)c34)C2)CC1 [Compound 74] |  |  | 0.004 µM | 0.012 µM |  | 5.2 µM |
| CNC(=O)c1cncc(N2CCC(N3CC(Cc4cn(-c5ccc(F)cc5C(=O)N(C)C(C)C)c5cncc(C)c45)C3)CC2)n1 [Compound 75] |  |  | 0.009 µM | 0.119 µM |  | 2 µM |
| CN=S(=O)(c1cc(F)ccc1-n1cc(CC2CCN(CC3CCOCC3)C2)c2c(C)cncc21)C(C)C (stereo not drawn) [Compound 77] |  |  | 0.09 µM | 0.136 µM |  | 5.8 µM |
| CC(=O)N1CCC(C)(CN2CC(Cc3cn(-c4ccc(F)cc4C(=O)N(C)C(C)C)c4cncc(C)c34)C2)CC1 [Compound 84] |  |  | 0.063 µM | 0.131 µM |  | 4.3 µM |
| Cc1cncc2c1c(CC1CN(CC3CCNC(=O)CC3)C1)cn2-c1ccc(F)cc1C(=O)N(C)C(C)C (stereo not drawn) [Compound 104] |  |  | 0.275 µM | 0.254 µM |  | > 15 µM |
| CN=S(=O)(c1cc(F)ccc1-n1cc(CC2CCN(CC3CCN(C(C)=O)CC3)C2)c2c(C)cncc21)C(C)C (stereo not drawn) [Compound 128] |  |  | 0.146 µM | 0.238 µM |  | 7.9 µM |
| Cc1cncc2c1c(CC1CN(CC3CCC(O)CC3)C1)cn2-c1ccc(F)cc1C(=O)N(C)C(C)C (stereo not drawn) [Compound 144] |  |  | 0.011 µM | 0.011 µM |  | 6.5 µM |
| COC(=O)[C@H]1CC[C@@H](CN2CC[C@@H](Cc3cn(-c4ccc(F)cc4C(=O)N(C)C(C)C)c4cncc(C)c34)C2)CC1 [Compound 153] |  |  | 0.035 µM | 0.077 µM |  | 7.9 µM |

More lines, main results first:

| IC50 (MEIS1 mRNA expression) | IC50 (MOLM14 cells; MOLM14) | IC50 (MOLM14 cells; Homo sapiens, MOLM-14, MOLM14) | IC50 (MEIS1 mRNA expression; Homo sapiens, MOLM-14, 48 h) | Structure (SMILES) | IC50 (KO-52 cells) | IC50 (KO-52 cells; Homo sapiens) |
| --- | --- | --- | --- | --- | --- | --- |
|  |  | 0.044 µM | 0.111 µM | Cc1cncc2c1c(C[C@H]1CCN([C@H](C)C3CCOCC3)C1)cn2-c1ccc(F)cc1[S@](=N)(=O)C(C)C (single isomer, unassigned) [Compound 181a] |  | 4.1 µM |
| 0.023 µM | 0.013 µM |  |  | Cc1cncc2c1c(CC1CCN(CC3CCC(=O)N(C)CC3)C1)cn2-c1ccc(F)cc1C(=O)N(C)C(C)C (single isomer, unassigned) [Compound 184a] |  | > 15 µM |
| 0.115 µM | 0.052 µM |  |  | Cc1cncc2c1c(CC1CCN(CC3CCC(=O)N(C)CC3)C1)cn2-c1ccc(F)cc1C(=O)N(C)C(C)C (single isomer, unassigned) [Compound 184b] | > 15 µM |  |
|  |  | 0.04 µM | 0.113 µM | Cc1cncc2c1c(C[C@@H]1CCN(C[C@H]3CCOC3)C1)cn2-c1ccc(F)cc1C(=O)N(C)C(C)C (single isomer, unassigned) [Compound 190a] |  | 10 µM |
|  |  | 0.046 µM | 0.065 µM | Cc1cncc2c1c(C[C@@H]1CCN(C[C@@H]3CCOC3)C1)cn2-c1ccc(F)cc1C(=O)N(C)C(C)C (single isomer, unassigned) [Compound 190b] |  | 4.9 µM |
|  |  | 0.007 µM | 0.039 µM | Cc1cncc2c1c(CC1CN(C[C@H]3CCOC3)C1)cn2-c1ccc(F)cc1C(=O)N(C)C(C)C (single isomer, unassigned) [Compound 191a] |  | 4.6 µM |
|  |  | 0.033 µM | 0.041 µM | Cc1cncc2c1c(CC1CN(C[C@@H]3CCOC3)C1)cn2-c1ccc(F)cc1C(=O)N(C)C(C)C (single isomer, unassigned) [Compound 191b] |  | 7 µM |
|  |  | 0.023 µM | 0.021 µM | Cc1cncc2c1c(C[C@@H]1CCN(CC3CCC(O)CC3)C1)cn2-c1ccc(F)cc1C(=O)N(C)C(C)C (single isomer, unassigned) [Compound 205a] | 7 µM |  |
| 0.031 µM | 0.025 µM |  |  | Cc1cncc2c1c(C[C@@H]1CCN(CC3CCC(O)CC3)C1)cn2-c1ccc(F)cc1C(=O)N(C)C(C)C (single isomer, unassigned) [Compound 205b] | 3.2 µM |  |
|  |  | 0.013 µM | 0.024 µM | CC(=O)N1CCC([C@H](CO)N2CC[C@@H](Cc3cn(-c4ccc(F)cc4C(=O)N(C)C(C)C)c4cncc(C)c34)C2)CC1 (single isomer, unassigned) [Compound 206a] |  | 6.6 µM |
|  |  | 0.018 µM | 0.014 µM | CC(=O)N1CCC(CN2CC[C@@H](Cc3cn(-c4ccc(F)cc4C(=O)N4CCC5CC54)c4cncc(C)c34)C2)CC1 (single isomer, unassigned) [Compound 311a] |  | 7.7 µM |
| 0.026 µM | 0.035 µM |  |  | CC(=O)N1CCC(CN2CC[C@@H](Cc3cn(-c4ccc(F)cc4C(=O)N4CCC5CC54)c4cncc(C)c34)C2)CC1 (single isomer, unassigned) [Compound 311b] | > 15 µM |  |
|  |  | 0.007 µM | 0.013 µM | Cc1cncc2c1c(C[C@@H]1CCN(C[C@H]3CCNC(=O)CC3)C1)cn2-c1ccc(F)cc1C(=O)N1[C@H](C)CC[C@H]1C (single isomer, unassigned) [Compound 352a] |  | > 15 µM |
|  |  | 0.14 µM | 0.266 µM | Cc1cncc2c1c(C[C@@H]1CCN(C[C@@H]3CCNC(=O)CC3)C1)cn2-c1ccc(F)cc1C(=O)N1[C@H](C)CC[C@H]1C (single isomer, unassigned) [Compound 352b] |  | > 15 µM |
| 0.012 µM |  | 0.006 µM |  | Cc1cncc2c1c(C[C@@H]1CCN(CC3CCNC(=O)CC3)C1)cn2-c1ccc(F)cc1C(=O)N1CCC[C@H]1C (single isomer, unassigned) [Compound 353a] |  | > 15 µM |
